Series [1] in a line: combined electrophoretic and iontophoretic transdermal delivery from hydrogel formulation C in device according to FIG. 3 (examples 3a, 3b, 3c). Type of series: in vitro ADME, mouse. The source says:
The rate of combined iontophoretic and electrophoretic transdermal delivery of aTapentadol hydrochloride containing hydrogel formulation has been investigated in examples 3a, 3b and 3c.
(§1) The linearity of the method was verified by calibration with an aqueous solution of Tapentadol hydrochloride.
The hydrogel formulation C (as described in example 2a) has been placed in a combined electrophoretic and iontophoretic device according to FIG. 3. The following components were used for preparing the inventive electrophoretic and iontophoretic device according to FIG. 3:
silver electrodes as pair of electrodes consisting of an active electrode (1a) and a counter electrode (2a) (silver gauze, 1024 mesh/cm^2, 0.12 wire diameter, 99.9% Ag, 18 mm diameter and 14 mm diameter, respectively), an additional silver ring electrode as an auxiliary electrode (silver gauze, 1024 mesh/cm^2, 0.12 wire diameter, 99.9% Ag, 20 mm outer diameter and 16 mm inner diameter, respectively), a hydrogel formulation (comprising 2.5%-wt. Klucel® HF and 0.1%-wt. sodium chloride, having a pH value of 7.0) as additional reservoir (15) being in contact with the silver ring electrode, a foam ring as (9) (Alveolit TA 1001 005 White, 95 kg/m^3, 24 mm outer diameter, 20 mm inner diameter), hydrogel formulation C as drug reservoir (3), teflon ring as barrier material (10) (thickness 1 mm, outer diameter 16 mm, inner diameter 11 mm and, thickness 0.5 mm, outer diameter 20 mm, inner diameter 16 mm, respectively), silicone adhesive Bio PSA-7 4502 as adhesive layer (4a), which has been in contact with a removable protective layer prior to use (transparent PETP foil manufactured by 3M®, 74 μm, with one-side fluorination, 24 mm diameter), acrylate adhesive DuroTAK 387-2054 as a second adhesive layer (8), a PET foil as surface layer (7) (Loparex PET foil, 75 μm, 105 g/m^2, 24 mm diameter).
Three wires were soldered to the electrodes and connected to a conventional current source as electric power source (6a) (Voltakraft® laboratory power supply DIGI 35).
A transdermal delivery experiment across mouse skin has been performed. In the first electrophoretic phase, only the silver electrodes as pair of electrodes consisting of an active electrode (1a) and a counter electrode (2a) were connected to the current supply. After application of 2.5 hours a single pulse having a pulse length of 60 s at a constant voltage of 3 V has been applied. After application of said pulse both electrodes were disconnected from the voltage generator. In the second iontophoretic phase following the electrophoretic phase, the counter electrode (2a) of the electrophoretically used pair of silver electrodes (1a and 2a) is used as an active electrode (1b) and the additional silver ring electrode is used a counter electrode (2b). A single pulse having a pulse length of 60 s at a constant voltage of 3 V has been applied in the iontophoretic phase.
The hydrogel formulation C (as described in example 2a) has been placed in a combined electrophoretic and iontophoretic device according to FIG. 3. The same components were used for preparing the inventive combined electrophoretic and iontophoretic device as described in example 3a.
Three transdermal delivery experiments (E-1, E2 and E3 as example 3b) to mouse skin have been performed in order to directly assess differences between a solely electrophoretic transdermal delivery and a combined electrophoretic and iontophoretic transdermal delivery as indicated in FIG. 13 and FIG. 14: […]

Series [2] in a line: preliminary clinical trials: serum concentration and pain treating effect (visual analog scale). Type of series: in vivo, human. An excerpt: Low serum concentrations of Tapentadol suffice to show an effect in individuals that are relatively sensitive and higher serum concentrations of Tapentadol are needed to show an effect in persons that are relatively unsensitive.
Series [3] can be described thus: electrophoretic transdermal delivery from hydrogel formulations in device according to FIG. 1 (examples 2a, 2b, 2c; passive comparative example 2a). To be noted: for total amount of Tapentadol permeated, electrophoretic delivery: after 24 hours, 60 s pulses after 1.5 and 16.5 hours. In kind it is in vitro ADME, mouse.
From the text: The rate of electrophoretic transdermal delivery of three different exemplary Tapentadol hydrochloride containing hydrogel formulations A, B and C has been investigated in example 2a, 2b and 2c. Further, the rate of passive transdermal delivery of a corresponding Tapentadol hydrochloride containing hydrogel formulation has been investigated in a comparative experiment 2a.
as §1
The hydrogel formulation B has been placed in an electrophoretic transdermal delivery system according to FIG. 1. The following components were used for preparing the electrophoretic device according to FIG. 1:
silver electrodes as pair of electrodes consisting of an active electrode (1a) and a counter electrode (2a) (silver gauze, 1024 mesh/cm^2, 0.12 wire diameter, 99.9% Ag, 18 mm diameter), a foam ring (9) (Alveolit TA 1001 005 White, 95 kg/m^3, 22 mm outer diameter, 16 mm inner diameter), hydrogel formulation B as drug reservoir (3), a teflon ring as barrier material (10) (thickness 1 mm, outer diameter 16 mm, inner diameter 11 mm), silicone adhesive Bio PSA-7 4502 as adhesive layer (4a), which has been in contact with a removable protective layer prior to use (transparent PETP foil manufactured by 3M®, 74 μm, with one-side fluorination, 22 mm diameter), acrylate adhesive DuroTAK 387-2054 as a second adhesive layer (8), a PET foil as surface layer (7) (Loparex PET foil, 75 μm, 105 g/m^2, 22 mm diameter).
Two wires were soldered to the electrodes and connected to a conventional current source as electric power source (6a) (Voltakraft® laboratory power supply DIGI 35).
Transdermal delivery experiments across mouse skin have been performed after two short current pulses (2 V) have been applied for 2 s after 1.5 hour and for 2 s after 16.5 hours.
For comparison, the hydrogel formulation B or A has been placed in an electrophoretic transdermal delivery system according to FIG. 1 and passive transdermal delivery experiments to mouse skin have been performed, i.e. no electric current has been applied to these systems (passive control experiments). This experiment has been performed twice for formulation B (compB-1 and compB-2) and once in case of formulation A (compA) (comparative example 2a) as indicated in FIG. 4 and FIG. 5.
The hydrogel formulation B has been placed in an electrophoretic transdermal delivery system according to FIG. 1 comprising the same components as used for example 2a and comparative example 2a.
Transdermal delivery experiments across mouse skin have been performed after two current pulses have been applied. […]

The nature of series [4]: HPLC purity of Tapentadol in exhausted hydrogel after electric-field-assisted administration (example 4). Type of series: physicochemical.
Setting [5] is: exhausted hydrogel of F-3 of example 3c, HPLC.

SMILES strings stand for the structures.

Regarding `CC[C@@H](c1cccc(O)c1)[C@@H](C)CN(C)C` [Tapentadol, (−)-(1R,2R)-3-(3-dimethyl-amino-1-ethyl-2-methyl-propyl)-phenol], in series [1] (E-2, after 18 hours compared to the maximum at about 6 hours), the “fall-off of the drug flux” value is listed as “about 50%”. The “total amount of Tapentadol permeated, combined electrophoretic and iontophoretic delivery” value is 430 μg/cm^2 in series [1] (after 24 hours, D-1: formulation C, 60 s 3 V electrophoretic pulse after 2.5 hours then 60 s 3 V iontophoretic pulse, mouse skin probably injured); “more than 800 μg/cm^2” in series [1] (after 24 hours, E-3: formulation C, four 60 s 3 V electrophoretic pulses (0, 15.75, 18, 20.75 h) each followed by 9 V iontophoretic pulse); “about 1500 μg/cm^2” in series [1] (after 24 hours, F-3: formulation C, four 60 s 4 V electrophoretic pulses (0, 2.5, 5.5, 21.5 h) each followed by 9 V iontophoretic pulse). Further, the “total amount of Tapentadol permeated, electrophoretic delivery” value in series [1] (after 24 hours, E-2: formulation C, four 60 s 3 V electrophoretic pulses (0, 15.75, 18, 20.75 h)) is listed as “more than 700 μg/cm^2”; in series [3] (B-5: formulation B, 2 V) it was “more than 300 μg/cm^2”; in series [3] (C-3: formulation C, 5 V) it was 670 μg/cm^2. Further, the “visual analog scale (VAS) in a population mean” value in series [2] (at serum concentration of about 5 ng·ml-1) is “approximately −2 mm”; in series [2] (at serum concentration of about 300 ng·ml-1), “approximately −15 mm”. The “increase of cumulative skin permeation by electrophoresis versus passive delivery” value in series [3] (hydrogel formulation B, example 2a (2 V pulses of 2 s after 1.5 and 16.5 hours) vs comparative example 2a, from FIG. 4) is on record as 5-10 fold. Moreover, in series [3] (over 24 hours of administration, examples 2a, 2b and 2c), the “Tapentadol remaining within the transdermal delivery system” value is on record as “about 90 wt.-%”. Besides, the “electrically induced degradation of Tapentadol” value in series [4] (during electric-field administration of the device) is given as “does not induce a significant degradation”. The Tapentadol content in series [4] (setting [5]) turned out to be 95.3%. In series [4] (setting [5]), the sum of impurities was found to be 4.7%.

Values taken from patent US10632195B2, “Pharmaceutical device for electric-field assisted administration of Tapentadol and method of administering Tapentadol with same” (Gruenenthal GmbH, priority 2012, dated 2020).
